# According to patent US20150191469A1, “COMPOUNDS AND METHODS FOR TREATING HIV” (priority 2012, published 2015):
# Test system: HIV
# Assay: MT4 assay: antiviral HIV activity (cell protection, cell titer glo readout at 96 hours)
# Assay type: cell-based
# Conditions: Human immunodeficiency virus 1, MT4, 96 h, MT4 cells, cell titer glo readout at 96 hours, 10 point dose response; read-out: HIV MT4 Assay IC50
# Method in brief: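 MT-4 cells infected with HIV, with inhibition readout by CellTiter-Glo luminescence at 96 h relative to no-compound control. Cytotoxicity measured in parallel under the same conditions. IC50 from a 10-point, 3-4-fold dilution series spanning >1000-fold, fitted with a four-parameter logistic equation.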
row,SMILES,IC50 [nM]
1,"Cc1nc2c(cc(CNC(=O)c3ccc4c(cnn4C)c3)n2C)c(-c2cc(F)c3c(c2C)CCCO3)c1[C@H](OC(C)(C)C)C(=O)O (atropisomer, axis not shown; (M)) [Example 412, (2S)(M)-2-(tert-butoxy)-2-(-4-(8-fluoro-5-methylchroman-6-yl)-1,6-dimethyl-2-((1-methyl-1H-indazole-5-carboxamido)methyl)-1H-pyrrolo[2,3-b]pyridin-5-yl)acetic acid]",43.1
2,"COCCNC(=O)/C=C/c1cc2c(-c3cc(F)c4c(c3C)CCCO4)c([C@H](OC(C)(C)C)C(=O)O)c(C)nc2n1C (atropisomer, axis not shown; (M)) [Example 413, (2S)(M)-2-(tert-butoxy)-2-(-4-(8-fluoro-5-methylchroman-6-yl)-2-((E)-3-((2-methoxyethyl)amino)-3-oxoprop-1-en-1-yl)-1,6-dimethyl-1H-pyrrolo[2,3-b]pyridin-5-yl)acetic acid]",148
3,"Cc1nc2c(cc(C(=O)C(=O)NCc3ccccc3)n2C)c(-c2cc(F)c3c(c2C)CCCO3)c1[C@H](OC(C)(C)C)C(=O)O (atropisomer, axis not shown; (M)) [Example 420, (2S)(M)-2-(-2-(2-(benzylamino)-2-oxoacetyl)-4-(8-fluoro-5-methylchroman-6-yl)-1,6-dimethyl-1H-pyrrolo[2,3-b]pyridin-5-yl)-2-(tert-butoxy)acetic acid]",94.6
4,Cc1nc2c(cc(-c3nnc(N4C[C@@H](C)O[C@@H](C)C4)o3)n2C)c(-c2cc(F)c3c(c2C)CCCO3)c1[C@H](OC(C)(C)C)C(=O)O (racemic) [Example 338],1.6
5,Cc1nc2c(cc(-c3cc(N4C[C@@H](C)O[C@@H](C)C4)ncn3)n2C)c(-c2cc(F)c3c(c2C)CCCO3)c1[C@H](OC(C)(C)C)C(=O)O (racemic) [Example 364],10.9
6,Cc1nc2c(cc(-c3nc(N4C[C@@H](C)N[C@@H](C)C4)ns3)n2C)c(-c2cc(F)c3c(c2C)CCCO3)c1[C@H](OC(C)(C)C)C(=O)O (racemic) [Example 397],13.1
7,Cc1nc2c(cc(-c3csc(N4C[C@@H](C)O[C@@H](C)C4)n3)n2C)c(-c2cc(F)c3c(c2C)CCCO3)c1[C@H](OC(C)(C)C)C(=O)O (racemic) [Example 409],13.4
8,"Cc1nc2c(cc(-c3ccnc(N4CC(N5CCOCC5)C4)c3)n2C)c(-c2cc(F)c3c(c2C)CCCO3)c1[C@H](OC(C)(C)C)C(=O)O [Example 2, (2S)-2-(tert-butoxy)-2-[4-(8-fluoro-5-methyl-3,4-dihydro-2H-1-benzopyran-6-yl)-1,6-dimethyl-2-{2-[3-(morpholin-4-yl)azetidin-1-yl]pyridin-4-yl}-1H-pyrrolo[2,3-b]pyridin-5-yl]acetic acid]",15.6
9,"Cc1nc2c(cc(-c3ccnc(-c4ccc5c(cnn5C)c4)c3)n2C)c(-c2ccc(Cl)cc2)c1[C@H](OC(C)(C)C)C(=O)O [Example 15, (2S)-2-(tert-butoxy)-2-[4-(4-chlorophenyl)-1,6-dimethyl-2-[2-(1-methyl-1H-indazol-5-yl)pyridin-4-yl]-1H-pyrrolo[2,3-b]pyridin-5-yl]acetic acid]",13.7
10,CCN(CC)C1C[C@H]2CC[C@@H](C1)N2c1cc(-c2cc3c(-c4cc(F)c5c(c4C)CCCO5)c([C@H](OC(C)(C)C)C(=O)O)c(C)nc3n2C)ccn1 (some centres unmarked) [Example 110],45
11,Cc1nc2c(cc(-c3ccnc(NC4C[C@H]5CC[C@@H](C4)N5C)c3)n2C)c(-c2cc(F)c3c(c2C)CCCO3)c1[C@H](OC(C)(C)C)C(=O)O (some centres unmarked) [Example 112],1330
12,Cc1nc2c(cc(-c3cncc(-c4ccc5c(cnn5C)c4)c3)n2C)c(-c2cc(F)c3c(c2C)CCCO3)c1[C@H](OC(C)(C)C)C(=O)O [Example 138],1.5
13,Cc1nc2c(cc(-c3cc(-c4ccc5c(cnn5C)c4)[nH]n3)n2C)c(-c2cc(F)c3c(c2C)CCCO3)c1[C@H](OC(C)(C)C)C(=O)O [Example 140],14.1
14,Cc1nc2c(cc(-c3nc(-c4ccc5c(cnn5C)c4)nn3C)n2C)c(-c2cc(F)c3c(c2C)CCCO3)c1[C@H](OC(C)(C)C)C(=O)O [Example 141],149
15,Cc1nc2c(cc(-c3cc(-c4ccc5c(cnn5C)c4)ncn3)n2C)c(-c2cc(F)c3c(c2C)CCCO3)c1[C@H](OC(C)(C)C)C(=O)O [Example 142],1.8
16,Cc1nc2c(cc(-c3cnc(-c4ccc5c(cnn5C)c4)s3)n2C)c(-c2cc(F)c3c(c2C)CCCO3)c1[C@H](OC(C)(C)C)C(=O)O [Example 143],12.5
17,Cc1nc2c(cc(C(=O)N3CCCN(C4COC4)CC3)n2C)c(-c2cc(F)c3c(c2C)CCCO3)c1[C@H](OC(C)(C)C)C(=O)O [Example 162],3650
18,Cc1nc2c(cc(C(=O)Nc3ccc4c(cnn4C)c3)n2C)c(-c2cc(F)c3c(c2C)CCCO3)c1[C@H](OC(C)(C)C)C(=O)O [Example 163],43
19,Cc1nc2c(cc(C(=O)N3CCC(NC(=O)c4cncn4C)CC3)n2C)c(-c2cc(F)c3c(c2C)CCCO3)c1[C@H](OC(C)(C)C)C(=O)O [Example 165],50000
20,Cc1nc2c(cc(C(=O)N3CCn4cnnc4C3)n2C)c(-c2cc(F)c3c(c2C)CCCO3)c1[C@H](OC(C)(C)C)C(=O)O [Example 166],50000
21,Cc1nc2c(cc(C(=O)N3CCc4ccc(S(=O)(=O)NC(C)C)cc4C3)n2C)c(-c2cc(F)c3c(c2C)CCCO3)c1[C@H](OC(C)(C)C)C(=O)O [Example 167],357
22,Cc1nc2c(cc(CNC(=O)N3CCCN(C4COC4)CC3)n2C)c(-c2cc(F)c3c(c2C)CCCO3)c1[C@H](OC(C)(C)C)C(=O)O [Example 168],12600
23,Cc1nc2c(cc(C(=O)N3CCN(c4ccncc4)CC3)n2C)c(-c2cc(F)c3c(c2C)CCCO3)c1[C@H](OC(C)(C)C)C(=O)O [Example 169],1240

# The next lines start with the values.
row,IC50 [nM],SMILES
1,14,CCCn1cc(-c2cc(-c3cc4c(-c5cc(F)c6c(c5C)CCCO6)c([C@H](OC(C)(C)C)C(=O)O)c(C)nc4n3C)ccn2)cn1 [Example 44]
2,4,Cc1nc2c(cc(-c3ccnc(-c4ccc5c(c4)ncn5C)c3)n2C)c(-c2cc(F)c3c(c2C)CCCO3)c1[C@H](OC(C)(C)C)C(=O)O [Example 51]
3,2.6,Cc1nc2c(cc(-c3ccnc(-c4ccc5nn(C)nc5c4)c3)n2C)c(-c2cc(F)c3c(c2C)CCCO3)c1[C@H](OC(C)(C)C)C(=O)O [Example 61]
4,2.8,Cc1nc2c(cc(-c3ccnc(-c4ccc5nn(C6COC6)cc5c4)c3)n2C)c(-c2cc(F)c3c(c2C)CCCO3)c1[C@H](OC(C)(C)C)C(=O)O [Example 64]
5,2.4,Cc1nc2c(cc(-c3ccnc(-c4ccc5c(cnn5C5COC5)c4)c3)n2C)c(-c2cc(F)c3c(c2C)CCCO3)c1[C@H](OC(C)(C)C)C(=O)O [Example 65]
6,23.4,Cc1nc2c(cc(-c3cccc(-c4ccc5c(cnn5C)c4)n3)n2C)c(-c2cc(F)c3c(c2C)CCCO3)c1[C@H](OC(C)(C)C)C(=O)O [Example 71]
7,3.8,Cc1cc(COc2cc(-c3cc4c(-c5cc(F)c6c(c5C)CCCO6)c([C@H](OC(C)(C)C)C(=O)O)c(C)nc4n3C)ccn2)ccn1 [Example 73]
8,56.5,Cc1nc2c(cc(-c3ccnc(CNc4ncc(F)cn4)c3)n2C)c(-c2cc(F)c3c(c2C)CCCO3)c1[C@H](OC(C)(C)C)C(=O)O [Example 74]
9,100,Cc1nc2c(cc(-c3ccnc(OC4CCN(Cc5ccccc5)CC4)c3)n2C)c(-c2cc(F)c3c(c2C)CCCO3)c1[C@H](OC(C)(C)C)C(=O)O [Example 75]
10,112,Cc1nc2c(cc(-c3ccnc(CNc4ccccn4)c3)n2C)c(-c2cc(F)c3c(c2C)CCCO3)c1[C@H](OC(C)(C)C)C(=O)O [Example 76]
11,41,Cc1nc2c(cc(-c3ccnc(CN(C)c4ccccn4)c3)n2C)c(-c2cc(F)c3c(c2C)CCCO3)c1[C@H](OC(C)(C)C)C(=O)O [Example 77]
12,5.8,Cc1nc2c(cc(-c3ccnc(-c4ccc5c(c4)OCCO5)c3)n2C)c(-c2cc(F)c3c(c2C)CCCO3)c1[C@H](OC(C)(C)C)C(=O)O [Example 78]
13,54.6,Cc1nc2c(cc(-c3ccnc(N4CCCN(C(=O)C5CCOC5)CC4)c3)n2C)c(-c2cc(F)c3c(c2C)CCCO3)c1[C@H](OC(C)(C)C)C(=O)O (some centres unmarked) [Example 105]
14,44.5,Cc1nc2c(cc(-c3ccnc(N4CCC(Oc5ccccc5)C4)c3)n2C)c(-c2cc(F)c3c(c2C)CCCO3)c1[C@H](OC(C)(C)C)C(=O)O (some centres unmarked) [Example 107]
15,40,Cc1nc2c(cc(-c3ccnc(N4CCN5CCCC5C4)c3)n2C)c(-c2cc(F)c3c(c2C)CCCO3)c1[C@H](OC(C)(C)C)C(=O)O (some centres unmarked) [Example 116]
16,15,Cc1nc2c(cc(-c3ccnc(N4CC5CN(C6COC6)CC5C4)c3)n2C)c(-c2cc(F)c3c(c2C)CCCO3)c1[C@H](OC(C)(C)C)C(=O)O (some centres unmarked) [Example 121]
17,164,Cc1nc2c(cc(-c3ccnc(N4CCN5CCC4C5)c3)n2C)c(-c2cc(F)c3c(c2C)CCCO3)c1[C@H](OC(C)(C)C)C(=O)O (some centres unmarked) [Example 123]
18,32.5,Cc1nc2c(cc(-c3ccnc(N4CCCN5CCCC5C4)c3)n2C)c(-c2cc(F)c3c(c2C)CCCO3)c1[C@H](OC(C)(C)C)C(=O)O (some centres unmarked) [Example 124]
19,22.5,Cc1nc2c(cc(-c3ccnc(N4CCCN(C5CCOC5)CC4)c3)n2C)c(-c2cc(F)c3c(c2C)CCCO3)c1[C@H](OC(C)(C)C)C(=O)O (some centres unmarked) [Example 126]
20,2,Cc1nc2c(cc(-c3cc(-c4ccc5c(cnn5C)c4)ccn3)n2C)c(-c2cc(F)c3c(c2C)CCCO3)c1[C@H](OC(C)(C)C)C(=O)O [Example 139]
21,42.2,Cc1nc2c(cc(C(=O)N3CCC(Oc4ccc(C#N)cc4)CC3)n2C)c(-c2cc(F)c3c(c2C)CCCO3)c1[C@H](OC(C)(C)C)C(=O)O [Example 164]
22,4.2,Cc1nc2c(cc(C(=O)N3CCC(c4ccccc4)CC3)n2C)c(-c2cc(F)c3c(c2C)CCCO3)c1[C@H](OC(C)(C)C)C(=O)O [Example 170]
23,32.6,Cc1nc2c(cc(C(=O)N3CCC(c4ccncc4)CC3)n2C)c(-c2cc(F)c3c(c2C)CCCO3)c1[C@H](OC(C)(C)C)C(=O)O [Example 171]
24,5.9,Cc1nc2c(cc(C(=O)N3CCN(c4ccccc4)CC3)n2C)c(-c2cc(F)c3c(c2C)CCCO3)c1[C@H](OC(C)(C)C)C(=O)O [Example 172]
